Structures can show the parent of a compound that is named as a salt.

What all share (assay type): cell-based, human
For series [1], the system named is ubiquitinated p53 in A549 cells. Kind of series: p53 expression by western blot. Particulars: A549 cells with wild type p53, single agent.
Protocol: Cells were scraped from the culture, washed twice with PBS, and then suspended in 60-100 μL of Western blot lysis buffer containing 50 mM Tris-HCl (pH 7.5), 250 mM NaCl, 1 mM EDTA, 1 mM EGTA, 1 mM NaF, 1 mM phenylmethylsulfonyl fluoride, 1 mM DTT, 20 μg/mL leupeptin, 20 μg/mL aprotinin, 0.1% Triton X-100 and 1% SDS at 0-4° C. for 15 min. After centrifugation at 1500× g for 10 min at 0° C., the supernatants were collected, and the proteins were separated on 10% SDS-PAGE. After electrophoresis, protein blots were transferred to a nitrocellulose membrane. The membrane was blocked with 5% nonfat milk powder in TBST and incubated overnight with the corresponding primary antibodies at 4° C. After washing three times with TBST, the membrane was incubated at room temperature for 1 h with horseradish peroxidase-conjugated secondary antibody diluted with TBST (1:1000). The detected protein signals were visualized by an enchanced cheiluminescence reaction system (Amersham, Arlington Heights, Ill.).
A549 cells with wild type p53 were exposed to either bortezomib or erlotinib alone, or in combination concomitantly or sequentially 24-hr apart, and p53 expression was assessed by western blot.
The subject of the next series is A549. The experiment in a line: MTT cytotoxicity assay, A549. The conditions noted are these: A549, 72 h. On the technique in general: Tetrazolium dyes change colour on reduction, which living cells bring about.
The next series relates to H358. The experiment in a line: MTT cytotoxicity assay, H358. Particulars: H358, 72 h.
The test system of series [2] is EGF-induced EGFR-phosphorylation. The experiment in a line: EGF-induced EGFR phosphorylation in sensitive and resistant cells. The conditions noted are these: both sensitive and resistant cells.
Protocol: Cells were scraped from the culture, washed twice with PBS, and then suspended in 60-100 μL of Western blot lysis buffer containing 50 mM Tris-HCl (pH 7.5), 250 mM NaCl, 1 mM EDTA, 1 mM EGTA, 1 mM NaF, 1 mM phenylmethylsulfonyl fluoride, 1 mM DTT, 20 μg/mL leupeptin, 20 μg/mL aprotinin, 0.1% Triton X-100 and 1% SDS at 0-4° C. for 15 min. […] After electrophoresis, protein blots were transferred to a nitrocellulose membrane. The membrane was blocked with 5% nonfat milk powder in TBST and incubated overnight with the corresponding primary antibodies at 4° C. After washing three times with TBST, the membrane was incubated at room temperature for 1 h with horseradish peroxidase-conjugated secondary antibody diluted with TBST (1:1000). The detected protein signals were visualized by an enchanced cheiluminescence reaction system (Amersham, Arlington Heights, Ill.).
A further series has as its system H322. The experiment in a line: MTT cytotoxicity assay, H322. The conditions noted are these: H322, 72 h.
The next series relates to H1299. The experiment in a line: MTT cytotoxicity assay, H1299. Particulars: H1299, 72 h.

Consider `CC(C)C[C@H](NC(=O)[C@H](Cc1ccccc1)NC(=O)c1cnccn1)B(O)O` [bortezomib], for which the “p53 expression (western blot)” value in series [1] is “accumulation of ubiquitinated p53”.

As for `C#Cc1cccc(Nc2ncnc3cc(OCCOC)c(OCCOC)cc23)c1` [erlotinib HCl, [6,7-bis(2-methoxyethoxy)-4-quinazolin-4-yl]-(3-ethynylphenyl) amine], the “Sensitivity (cytotoxicity)” value with A549 was “resistant”; in the series on H358 it was “sensitive”; with H322 it was “sensitive”; with H1299, “resistant”. Further, the “EGF-induced EGFR-phosphorylation” value in series [2] is “inhibits”.
